According to patent US20050075375A1 (priority 2003, published 2005):
Like-named read-outs stand apart in the source and are kept apart here.

System: monocistronic NK5.1 HCV replicon in Huh7 cells
Assay: HCV replicon assay, monocistronic replicon cell line
Format: cell-based, hepatitis C virus
Settings: Hepatitis C virus, read-out: Mono EC50 Median
Method in brief: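 Huh7 cells carrying the monocistronic NK5.1 replicon, seeded 24 h before dosing, were exposed to six-point half-log compound series (0.6% DMSO) for 3 days at 37 °C. Replicon RNA was quantified by TaqMan RT-PCR, normalised to GAPDH and compared with DMSO controls to derive EC50.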

[1] = Huh-7, 72 h, Table 1, monocistronic replicon in Huh7 cells, 3 days incubation, HCV RNA/GAPDH RNA by TaqMan RT-PCR
[2] = Huh-7, monocistronic NK5.1 HCV replicon in Huh7 cells, median value
[3] = Huh-7, 72 h, table T3 (compounds 471-640), monocistronic replicon in Huh7 cells, 3 days incubation, HCV RNA/GAPDH RNA by TaqMan RT-PCR

Row | Structure (SMILES) | EC50 [1] [µM] | EC50 [2] [µM] | further results
1 | Cc1cc(O)c(-c2cc(C)n(-c3ccccc3C(F)(F)F)n2)cc1C [Compound 24, 4,5-Dimethyl-2-[5-methyl-i-(2-trifluoromethyl-phenyl)-1H-pyrazol-3-yl]-phenol] | > 19 |  | 
2 | COc1ccc([N+](=O)[O-])cc1-c1nc(-c2cccc(C)n2)n[nH]1 [Compound 407, 2-[5-(2-Methoxy-5-nitro-phenyl)-1H-[1,2,4]triazol-3-yl]-6-methyl-pyridine] |  | > 19 | 
3 | COc1ccc(O)c(-c2noc(-c3ccoc3)n2)c1 [Compound 299, 2-(5-Furan-3-yl-[1,2,4]oxadiazol-3-yl)-4-methoxy-phenol] |  | 21.7 | 
4 | CCCNC(=O)c1cc(-c2ccc3ccccc3c2)nn1-c1ccccn1 [Compound 71, 5-Naphthalen-2-yl-2-pyridin-2-yl-2H-pyrazole-3-carboxylic acid propylamide] | 21 |  | 
5 | COc1cccc(-c2nc(-c3nccc4ccccc34)n[nH]2)c1 [Compound 382] |  | > 19 | 
6 | Oc1c(Br)cc(Cl)cc1-c1nc(-c2ccccn2)n[nH]1 [Compound 621, 4-Chloro-6-bromo-2-(5-pyridin-2-yl-2H-[1,2,4]triazol-3-yl)-phenol] |  |  | EC50 [3]: 0.5 µM
7 | Cc1ccc(O)c(-c2nc(-c3cnccn3)n[nH]2)c1 [Compound 583, 4-Methyl-2-(5-pyrazin-2-yl-2H-[1,2,4]triazol-3-yl)-phenol] |  |  | EC50 [3]: > 32 µM
8 | Cc1cc(O)c(-c2cc(C)n(-c3nc4ccccc4s3)n2)cc1C [Compound 23, 2-(l-Benzothiazol-2-yl-5-methyl-1H-pyrazol-3-yl)-4,5-dimethyl-phenol] | > 19 |  | 
9 | Cc1cccnc1-c1noc(-c2ccc(NCc3ccccc3)cc2O)n1 [Compound 288, 5-Benzylamino-2-[3-(3-methyl-pyridin-2-yl)-[1,2,4]oxadiazol-5-yl]-phenol] |  | 0.8 | 
10 | Oc1ccccc1-c1ccn(-c2ccccn2)n1 [Compound 43, 2-(1-Pyridin-2-yl-1H-pyrazol-3-yl)-phenol] | 15 |  | 
11 | Oc1ccc(Br)cc1-c1nc(-c2ccccn2)no1 [Compound 144, 4-Bromo-2-(3-pyridin-2-yl-[1,2,4]oxadiazol-5-yl)-phenol] | 3.7 |  | 
12 | Cc1ccc(O)c(-c2nc(-c3ccc(NC(=O)OC(C)(C)C)cn3)no2)c1 [Compound 245, {6-[5-(2-Hydroxy-5-methyl-phenyl)-[1,2,4]oxadiazol-3-yl]-pyridin-3-yl}-carbamic acid tert-butyl ester] | > 32 | > 32 | 
13 | Cc1cccnc1-c1n[nH]c(-c2cc(Cl)ccc2O)n1 [Compound 445, 4-Chloro-2-(5-(3-methyl-pyridin-2-yl)-2H-[1,2,4]triazol-3-yl)-phenol] |  | 2.9 | 
14 | Cc1c2c(=O)oc3ccccc3c2nn1-c1ccccn1 [Compound 94] | 8.9 |  | 
15 | CCOC(=O)c1cc(-c2ccc3ccccc3c2)n(-c2ncccc2C(F)(F)F)n1 [Compound 67, 5-Naphthalen-2-yl-1-(3-trifluoromethyl-pyridin-2-yl)-1H-pyrazole-3-carboxylic acid ethyl ester] | 22 |  | 
16 | O=C(O)c1cc(-c2ccc3ccccc3c2)nn1-c1ncccc1C(F)(F)F [Compound 78, 5-Naphthalen-2-yl-2-(3-trifluoromethyl-pyridin-2-yl)-2H-pyrazole-3-carboxylic acid] | > 32 |  | 
17 | Cc1cccc(-c2n[nH]c(-c3cc(F)ccc3O)n2)n1 [Compound 393, 4-Fluoro-2-(5-(6-methyl-pyridin-2-yl)-2H-[1,2,4]triazol-3-yl)-phenol] |  | > 19 | 
18 | Oc1ccc2ccccc2c1-c1nc(-c2ccccn2)no1 [Compound 134, 1-(3-Pyridin-2-yl-[1,2,4]oxadiazol-5-yl)-naphthalen-2-ol] | 17 |  | 
19 | Cn1nc(-c2ccccn2)nc1-c1cc(Br)cc(Br)c1O [Compound 626, 4,6-Dibromo-2-(2-methyl-5-pyridin-2-yl-2H-[1,2,4]triazol-3-yl)-phenol] |  |  | EC50 [3]: 4.8 µM
20 | Fc1cccc(F)c1-c1nc(-c2cnccc2C(F)(F)F)n[nH]1 [Compound 478, 3-[5-(2,6-Difluoro-phenyl)-1H-[1,2,4]triazol-3-yl]-4-trifluoromethyl-pyridine] |  |  | EC50 [3]: > 32 µM
21 | FC(F)(F)c1ccc(-c2n[nH]c(-c3cccc(Br)c3)n2)nc1 [Compound 526, 2-[5-(3-Bromo-phenyl)-1H-[1,2,4]triazol-3-yl]-5-trifluoromethyl-pyridine] |  |  | EC50 [3]: > 19 µM
22 | O=[N+]([O-])c1ccc(O)c(-c2nc(-c3cnccc3C(F)(F)F)n[nH]2)c1 [Compound 412, 4-Nitro-2-[5-(4-trifluoromethyl-pyridin-3-yl)-2H-[1,2,4]triazol-3-yl]-phenol] |  | > 19 | 
23 | Oc1c(-c2nc(-c3cnccn3)n[nH]2)ccc2ccccc12 [Compound 591, 2-(5-pyrazin-2-yl-2H-[1,2,4]triazol-3-yl)-naphthalen-1-ol] |  |  | EC50 [3]: 16 µM
24 | Cc1ccc(-c2nc(-c3ncccc3C)no2)c(O)c1 [Compound 295] |  | 2.1 | 

Row | Structure (SMILES) | EC50 [1] [µM] | EC50 [2] [µM] | further results
25 | Cn1nc(-c2ccccn2)nc1-c1ccc2ccccc2c1O [Compound 606, 2-(2-Methyl-5-pyridin-2-yl-2H-[1,2,4]triazol-3-yl)-naphthalen-1-ol] |  |  | EC50 [3]: 2.4 µM
26 | Cc1ccccc1-c1nnc(-c2cccs2)o1 [Compound 317, 2-Thiophen-2-yl-5-o-tolyl-[1,3,4]oxadiazole] |  | > 32 | 
27 | Cc1cccnc1-c1noc(-c2cc(C3OCC(C)(C)CO3)ccc2O)n1 [Compound 297, 4-(5,5-Dimethyl-[1,3]dioxan-2-yl)-2-[3-(3-methyl-pyridin-2-yl)-[1,2,4]oxadiazol-5-yl]-phenol] |  | 0.43 | 
28 | CCOc1cccc(-c2nc(-c3ncccc3C)n[nH]2)c1O [Compound 446, 6-Ethoxy-2-(5-(3-methyl-pyridin-2-yl)-2H-[1,2,4]triazol-3-yl)-phenol] |  | 7.8 | 
29 | Oc1ccccc1-c1nnc(-c2ccccc2F)o1 [Compound 319, 2-[5-(2-Fluoro-phenyl)-[1,3,4]oxadiazol-2-yl]-phenol] |  | 18 | 
30 | Oc1ccc(Br)cc1-c1ncn(-c2ncccc2C(F)(F)F)n1 [Compound 634, 4-Bromo-2-[1-(3-trifluoromethyl-pyridin-2-yl)-1H-[1,2,4]triazol-3-yl]-phenol] |  |  | EC50 [3]: 3.8 µM
31 | Cc1cccnc1-n1cnc(-c2cc(Br)ccc2O)n1 [Compound 635, 4-Bromo-2-[1-(3-methyl-pyridin-2-yl)-1H-[1,2,4]triazol-3-yl]-phenol] |  |  | EC50 [3]: 6.2 µM
32 | Cc1cccc(-c2n[nH]c(-c3ccc(-c4ccccc4)c(F)c3)n2)n1 [Compound 398, 2-[5-(2-Fluoro-biphenyl-4-yl)-1H-[1,2,4]triazol-3-yl]-6-methyl-pyridine] |  | > 19 | 
33 | Oc1ccc(Br)cc1-c1nc(-c2ccc(C(F)(F)F)cn2)n[nH]1 [Compound 515, 4-Bromo-2-[5-(5-trifluoromethyl-pyridin-2-yl)-2H-[1,2,4]triazol-3-yl]-phenol] |  |  | EC50 [3]: > 19 µM
34 | COc1cccc(-c2nc(-c3ccc(C(F)(F)F)cn3)n[nH]2)c1O [Compound 519, 6-Methoxy-2-[5-(5-trifluoromethyl-pyridin-2-yl)-2H-[1,2,4]triazol-3-yl]-phenol] |  |  | EC50 [3]: > 19 µM
35 | CCN(CC)c1ccc(-c2nc(-c3ncccc3C(F)(F)F)n[nH]2)c(O)c1 [Compound 545, 5-Diethylamino-2-[5-(3-trifluoromethyl-pyridin-2-yl)-2H-[1,2,4]triazol-3-yl]-phenol] |  |  | EC50 [3]: > 19 µM
36 | O=C(O)c1cc(-c2ccc3ccccc3c2)nn1-c1ccccn1 [Compound 73, 5-Naphthalen-2-yl-2-pyridin-2-yl-2H-pyrazole-3-carboxylic acid] | > 32 |  | 
37 | COc1ccc(-c2ccn(-c3ncccc3C)n2)c(O)c1OC [Compound 119, 2,3-Dimethoxy-6-[1-(3-methyl-pyridin-2-yl)-1 H-pyrazol-3-yl]-phenol] | 11.8 |  | 
38 | COc1ccccc1-c1ccn(-c2ncccc2C(F)(F)F)n1 [Compound 38, 2-[3-(2-Methoxy-phenyl)-pyrazol-1-yl]-3-trifluoromethyl-pyridine] | 13 |  | 
39 | Cc1cccnc1-c1noc(-c2cccc3ccccc23)n1 [Compound 177, 3-Methyl-2-(5-naphthalen-1-yl-[1,2,4]oxadiazol-3-yl)-pyridine] | 7.2 |  | 
40 | CCOc1cccc(-c2nc(-c3nccc4ccccc34)n[nH]2)c1O [Compound 372, 6-Ethoxy-2-(5-isoquinolin-1-yl-2H-[1,2,4]triazol-3-yl)-phenol] |  | > 19 | 
41 | CCCNC(=O)c1cc(-c2ccc3ccccc3c2)n(-c2ccccn2)n1 [Compound 72, 5-Naphthalen-2-yl-1-pyridin-2-yl-1H-pyrazole-3-carboxylic acid propylamide] | > 32 |  | 
42 | COc1ccc(OC)c(-c2nc(-c3nccc4ccccc34)n[nH]2)c1 [Compound 380] |  | > 19 | 
43 | COc1ccc(O)c(-c2nc(-c3ccoc3)no2)c1 [Compound 283, 2-(3-Furan-3-yl-[1,2,4]oxadiazol-5-yl)-4-methoxy-phenol] |  | 15 | 
44 | Oc1ccc2ccccc2c1-c1nnc(-c2c(Cl)cccc2Cl)o1 [Compound 310, 1-[5-(2,6-Dichloro-phenyl)-[1,3,4]oxadiazol-2-yl]-naphthalen-2-ol] |  | 4.4 | 
45 | O=[N+]([O-])c1ccc(O)c(-c2nc(-c3ncccc3[N+](=O)[O-])no2)c1 [Compound 158, 4-Nitro-2-[3-(3-nitro-pyridin-2-yl)-[1,2,4]oxadiazol-5-yl]-phenol] |  |  | EC50 (Huh-7, 72 h): 11 µM
46 | Oc1ccc(Br)cc1-c1ccn(-c2ccccn2)n1 [Compound 97, 4-Bromo-2-(1-pyridin-2-yl-1H-pyrazol-3-yl)-phenol] | 22 |  | 
47 | O=[N+]([O-])c1cccnc1-c1noc(-c2ccccc2O)n1 [Compound 161, 2-[3-(3-Nitro-pyridin-2-yl)-[1,2,4]oxadiazol-5-yl]-phenol] | > 19 |  | 
